Test: recombinant barcode read abundance after kanamycin selection (control-corrected) (log10(CPM+1)); higher = more efficient recombination; sequences stand for … in AGTGCAGAGAAAATCGGCCAGTTTTCTCTGCCTGCAGTCCGCATGCCGT…AGATTTATGCAGCGGACTGCCTTTCTCCCAAAGTGATAAACCGGACAGTATCATGGACCGGTTTTCCCGGTAATCCGTATTTGCAAGGTTGGTTTCACT; site = the 11-nt target
Outline: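 Pooled oligos, each joining a target to an IS621 bridge RNA target-binding loop, were cloned and co-electroporated with a donor plasmid into E. coli. Selective plates carried chloramphenicol/ampicillin/kanamycin and 0.1 mM IPTG, while chloramphenicol/ampicillin LB agar served as control, with two replicates of each. Recombination efficiency rests on averaged, control-corrected counts per million of barcodes at recombinant junctions, shown as log10(CPM+1).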
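Also: IS621 recombinase and bridge RNA in Escherichia coli cells.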

Going from “CACGGGGCTTGGGTTCTAACCTGTTGCCT (site ATGCTACCTCC)” to “CACGGGGCTTGGGTTCTAACCTGTTGCCT (site CACGGGGCTAG)”, the “recombinant barcode read abundance (log10)” value rises from 0.0666 to 0.697.

First: CACGGTCCTTGGGTTCTAACCTGTTGCCA (site ATGCTATCTCT)
Second: CACGGTCCTTGGGTTCTAACCTGTTGCCA (site CACGGTCCTTG)
The “recombinant barcode read abundance (log10)” value of the first is lower: 0.0164 for the first, 1.31 for the second.

First: CACGGTCCTTGGGTTCTAACCTGTTGCGG (site AACGCTCCTCC)
Second: CACGGTCCTTGGGTTCTAACCTGTTGCGG (site CACGGTCCTCC)
The “recombinant barcode read abundance (log10)” value of the first is lower: 0.0287 for the first, 3.16 for the second.

Compared with “CACGTTACTTGGGTTCTAACCTGTTGCCT (site CACGGAACTAG)”, “CACGTTACTTGGGTTCTAACCTGTTGCCT (site CACGTTACTAG)” is higher in “recombinant barcode read abundance (log10)” value: 0.0559 for the first, 0.628 for the second.

First: CACTAGCCTTGGGTTCTAACCTGTTGCGG (site CACTAGCCTCC)
Second: CACTAGCCTTGGGTTCTAACCTGTTGCGG (site CACTATCCTCC)
The “recombinant barcode read abundance (log10)” value of the first is higher: 2.41 for the first, 0.133 for the second.

Going from “CACTGCTCTTGGGTTCTAACCTGTTGCCT (site CACTGATCTAG)” to “CACTGCTCTTGGGTTCTAACCTGTTGCCT (site CACTGCTCTAG)”, the “recombinant barcode read abundance (log10)” value rises from 0.2 to 1.58.

“CACTGCTCTTGGGTTCTAACCTGTTGCCT (site CACTGGTCTAG)” and “CACTGCTCTTGGGTTCTAACCTGTTGCCT (site CACTGTTCTAG)” are within 0.2 log units of each other in “recombinant barcode read abundance (log10)” value: 0.151 for the first, 0.173 for the second.

Compared with “CACTGGACTTGGGTTCTAACCTGTTGCCT (site CAATGGACTAG)”, “CACTGGACTTGGGTTCTAACCTGTTGCCT (site CACTGGACTAG)” is higher in “recombinant barcode read abundance (log10)” value: 0.155 for the first, 1.04 for the second.

“CACTGGACTTGGGTTCTAACCTGTTGCCT (site CAGTGGACTAG)” and “CACTGGACTTGGGTTCTAACCTGTTGCCT (site CATTGGACTAG)” are within 0.2 log units of each other in “recombinant barcode read abundance (log10)” value: 0.42 for the first, 0.286 for the second.

“CACTTAACTTGGGTTCTAACCTGTTGCCA (site CACTTAACTTG)” and “CACTTAACTTGGGTTCTAACCTGTTGCCA (site TGACAGTCTCT)” are within 0.2 log units of each other in “recombinant barcode read abundance (log10)” value: 0.0764 for the first, 0.0672 for the second.

First: CACTTAACTTGGGTTCTAACCTGTTGCCT (site CACTTAACTAG)
Second: CACTTAACTTGGGTTCTAACCTGTTGCCT (site CACTTACCTAG)
The “recombinant barcode read abundance (log10)” value of the first is higher: 0.8 for the first, 0 for the second.

“CACTTAACTTGGGTTCTAACCTGTTGCCT (site CACTTAGCTAG)” and “CACTTAACTTGGGTTCTAACCTGTTGCCT (site CACTTATCTAG)” are within 0.2 log units of each other in “recombinant barcode read abundance (log10)” value: 0.0439 for the first, 0 for the second.

Going from “CACTTACCTTGGGTTCTAACCTGTTGCCT (site CACTTAACTAG)” to “CACTTACCTTGGGTTCTAACCTGTTGCCT (site CACTTACCTAG)”, the “recombinant barcode read abundance (log10)” value rises from 0.0847 to 0.742.

“CACTTACCTTGGGTTCTAACCTGTTGCCT (site CACTTAGCTAG)” and “CACTTACCTTGGGTTCTAACCTGTTGCCT (site CACTTATCTAG)” are within 0.2 log units of each other in “recombinant barcode read abundance (log10)” value: 0.00951 for the first, 0.0355 for the second.

Compared with “CACTTAGCTTGGGTTCTAACCTGTTGCCT (site CACTTAACTAG)”, “CACTTAGCTTGGGTTCTAACCTGTTGCCT (site CACTTACCTAG)” is lower in “recombinant barcode read abundance (log10)” value: 0.559 for the first, 0.181 for the second.

Compared with “CACTTAGCTTGGGTTCTAACCTGTTGCCT (site CACTTAGCTAG)”, “CACTTAGCTTGGGTTCTAACCTGTTGCCT (site CACTTATCTAG)” is lower in “recombinant barcode read abundance (log10)” value: 0.269 for the first, 0.0252 for the second.

Going from “CACTTGACTTGGGTTCTAACCTGTTGCCT (site CACTTGACTAG)” to “CACTTGACTTGGGTTCTAACCTGTTGCCT (site CACTTGCCTAG)”, the “recombinant barcode read abundance (log10)” value falls from 1.2 to 0.213.

“CACTTGACTTGGGTTCTAACCTGTTGCCT (site CACTTGGCTAG)” and “CACTTGACTTGGGTTCTAACCTGTTGCCT (site CACTTGTCTAG)” are within 0.2 log units of each other in “recombinant barcode read abundance (log10)” value: 0.137 for the first, 0.0323 for the second.

Compared with “CACTTGACTTGGGTTCTAACCTGTTGCTT (site CACTTGACTAA)”, “CACTTGACTTGGGTTCTAACCTGTTGCTT (site CGCTTGTCTAA)” is lower in “recombinant barcode read abundance (log10)” value: 0.331 for the first, 0.075 for the second.

“CACTTGTCTTGGGTTCTAACCTGTTGCCT (site CACTTGACTAG)” and “CACTTGTCTTGGGTTCTAACCTGTTGCCT (site CACTTGCCTAG)” are within 0.2 log units of each other in “recombinant barcode read abundance (log10)” value: 0.0529 for the first, 0.0539 for the second.

First: CACTTGTCTTGGGTTCTAACCTGTTGCCT (site CACTTGGCTAG)
Second: CACTTGTCTTGGGTTCTAACCTGTTGCCT (site CACTTGTCTAG)
The “recombinant barcode read abundance (log10)” value of the first is lower: 0.283 for the first, 1.7 for the second.

Going from “CAGACGCCTTGGGTTCTAACCTGTTGCAG (site CACACTCCTCT)” to “CAGACGCCTTGGGTTCTAACCTGTTGCAG (site CAGACGCCTCT)”, the “recombinant barcode read abundance (log10)” value rises from 0.039 to 1.38.

“CAGACTCCTTGGGTTCTAACCTGTTGCCT (site CAGACTCCTAG)” and “CAGACTCCTTGGGTTCTAACCTGTTGCCT (site TAGACTACTAG)” are within 0.2 log units of each other in “recombinant barcode read abundance (log10)” value: 0.214 for the first, 0.186 for the second.

First: CAGAGCACTTGGGTTCTAACCTGTTGCCT (site AAGAGCACTAG)
Second: CAGAGCACTTGGGTTCTAACCTGTTGCCT (site CAGAGCACTAG)
The “recombinant barcode read abundance (log10)” value of the first is lower: 0.107 for the first, 1.2 for the second.

“CAGAGCACTTGGGTTCTAACCTGTTGCCT (site GAGAGCACTAG)” and “CAGAGCACTTGGGTTCTAACCTGTTGCCT (site TAGAGCACTAG)” are within 0.2 log units of each other in “recombinant barcode read abundance (log10)” value: 0.185 for the first, 0.138 for the second.

“CAGAGTACTTGGGTTCTAACCTGTTGCCT (site CACAGTGCTAG)” and “CAGAGTACTTGGGTTCTAACCTGTTGCCT (site CAGAGTACTAG)” are within 0.2 log units of each other in “recombinant barcode read abundance (log10)” value: 0.0547 for the first, 0.216 for the second.

Going from “CAGAGTCCTTGGGTTCTAACCTGTTGCTT (site CAGAGTCCTAA)” to “CAGAGTCCTTGGGTTCTAACCTGTTGCTT (site CATAGTCCTAG)”, the “recombinant barcode read abundance (log10)” value falls from 1.59 to 0.105.

First: CAGCACCCTTGGGTTCTAACCTGTTGCGG (site CAGCACCCTCC)
Second: CAGCACCCTTGGGTTCTAACCTGTTGCGG (site CGGTACCCTCC)
The “recombinant barcode read abundance (log10)” value of the first is higher: 0.515 for the first, 0.13 for the second.

Going from “CAGCAGCCTTGGGTTCTAACCTGTTGCTT (site CAGCAGCCTAA)” to “CAGCAGCCTTGGGTTCTAACCTGTTGCTT (site TCCGTTACTCG)”, the “recombinant barcode read abundance (log10)” value falls from 0.742 to 0.0126.

First: CAGCATCCTTGGGTTCTAACCTGTTGCAG (site ATCACGTCTAG)
Second: CAGCATCCTTGGGTTCTAACCTGTTGCAG (site CAGCATCCTCT)
The “recombinant barcode read abundance (log10)” value of the first is lower: 0.157 for the first, 1.11 for the second.

“CAGCGGCCTTGGGTTCTAACCTGTTGCCT (site CAGAGGCCTAG)” and “CAGCGGCCTTGGGTTCTAACCTGTTGCCT (site CAGCGGCCTAG)” are within 0.2 log units of each other in “recombinant barcode read abundance (log10)” value: 0.191 for the first, 0.288 for the second.

Compared with “CAGCGGCCTTGGGTTCTAACCTGTTGCCT (site CAGGGGCCTAG)”, “CAGCGGCCTTGGGTTCTAACCTGTTGCCT (site CAGTGGCCTAG)” is higher in “recombinant barcode read abundance (log10)” value: 0.121 for the first, 0.718 for the second.

Compared with “CAGGACCCTTGGGTTCTAACCTGTTGCCT (site CAAGACCCTAG)”, “CAGGACCCTTGGGTTCTAACCTGTTGCCT (site CACGACCCTAG)” is lower in “recombinant barcode read abundance (log10)” value: 1.93 for the first, 0.437 for the second.

First: CAGGACCCTTGGGTTCTAACCTGTTGCCT (site CAGGACCCTAG)
Second: CAGGACCCTTGGGTTCTAACCTGTTGCCT (site CATGACCCTAG)
The “recombinant barcode read abundance (log10)” value of the first is higher: 2.18 for the first, 0.409 for the second.

First: CAGGATGCTTGGGTTCTAACCTGTTGCCT (site CAAGATGCTAG)
Second: CAGGATGCTTGGGTTCTAACCTGTTGCCT (site CACGATGCTAG)
The “recombinant barcode read abundance (log10)” value of the first is higher: 0.731 for the first, 0.0431 for the second.

First: CAGGATGCTTGGGTTCTAACCTGTTGCCT (site CAGGATGCTAG)
Second: CAGGATGCTTGGGTTCTAACCTGTTGCCT (site CATGATGCTAG)
The “recombinant barcode read abundance (log10)” value of the first is higher: 1.35 for the first, 0.0284 for the second.

Going from “CAGGCGTCTTGGGTTCTAACCTGTTGCAC (site CAGGCGTCTGT)” to “CAGGCGTCTTGGGTTCTAACCTGTTGCAC (site GAGGGGTCTGT)”, the “recombinant barcode read abundance (log10)” value falls from 1.12 to 0.142.

Compared with “CAGGGCCCTTGGGTTCTAACCTGTTGCCT (site AAGGGCCCTAG)”, “CAGGGCCCTTGGGTTCTAACCTGTTGCCT (site CAGGGCCCTAG)” is higher in “recombinant barcode read abundance (log10)” value: 0.329 for the first, 2.14 for the second.

“CAGGGCCCTTGGGTTCTAACCTGTTGCCT (site GAGGGCCCTAG)” and “CAGGGCCCTTGGGTTCTAACCTGTTGCCT (site TAGGGCCCTAG)” are within 0.2 log units of each other in “recombinant barcode read abundance (log10)” value: 0.527 for the first, 0.397 for the second.

First: CAGGGGACTTGGGTTCTAACCTGTTGCCA (site CAGGGGACTTG)
Second: CAGGGGACTTGGGTTCTAACCTGTTGCCA (site CCGTGGACTTG)
The “recombinant barcode read abundance (log10)” value of the first is higher: 1.04 for the first, 0.217 for the second.

“CAGGGGCCTTGGGTTCTAACCTGTTGCCT (site CAGAGGCCTAG)” and “CAGGGGCCTTGGGTTCTAACCTGTTGCCT (site CAGCGGCCTAG)” are within 0.2 log units of each other in “recombinant barcode read abundance (log10)” value: 0.0366 for the first, 0.187 for the second.

First: CAGGGGCCTTGGGTTCTAACCTGTTGCCT (site CAGGGGCCTAG)
Second: CAGGGGCCTTGGGTTCTAACCTGTTGCCT (site CAGTGGCCTAG)
The “recombinant barcode read abundance (log10)” value of the first is higher: 1.97 for the first, 0.185 for the second.

Compared with “CAGGTACCTTGGGTTCTAACCTGTTGCAG (site CAGGTACCTAT)”, “CAGGTACCTTGGGTTCTAACCTGTTGCAG (site CAGGTACCTCT)” is higher in “recombinant barcode read abundance (log10)” value: 0.368 for the first, 3.12 for the second.
